{"source": "patent US20230144023A1", "about": "“USE OF BUTYLPHTHALIDE AND DERIVATIVE THEREOF” (CSPC NBP PHARMACEUTICAL CO., LTD, priority 2020, published 2023)", "key": {"JIMT-1 xenograft tumor": {"tested_on": "JIMT-1 xenograft tumor", "test": "Influence of NBP on antitumor efficacy of ab-PTX against JIMT-1 xenograft tumor (Example 4)", "type": "in vivo, Nu/Nu mice", "protocol": "After in vitro resuscitation and passage of JIMT-1 cells to a sufficient amount, the cells were counted by a microscope, and diluted with a serum-free medium to adjust the cell count to about 1×10^8 cells/mL. The cell suspension was kept in an ice-water bath. […] Monotherapy group of ab-PTX: intravenous injection of ab-PTX at 15 mg/kg once every week, qw (on days 0, 7, 14, 21, and 28). Administration period: 28 days. Administration volume: 10 mL/kg. Monotherapy group of NBP: […] The administration volume was 10 mL/kg. […] The administration period was 28 days. The administration volume was 10 mL/kg. The solvent group was given normal saline at the same frequency and with the same method as ab-PTX, and was given vegetable oil at the same frequency and with the same method as NBP. […] Animals were weighed at set time once per day after the commencement of administration. At the end of the experiment, after the animals were euthanized by CO2 asphyxiation, the tumors were excised and weighed."}, "[1]": {"tested_on": "MDA-MB-231, JIMT-1, SK-OV-3, HT29, A549, A375", "test": "In vitro proliferation of 6 tumor cell strains, summary statements (Example 5)", "type": "cell-based, Human", "details": "NBP alone; 6 cell strains", "protocol": "(§1) This experiment includes a monotherapy group of ab-PTX, a combined therapy group (ab-PTX/NBP), and an NBP group. Different drug concentration gradients were set for each group.\n(§2) ab-PTX/NBP group: the final concentration of NBP was 30 μM, and the concentration gradient of ab-PTX was the same as that of the monotherapy group.\n(§3) Monotherapy group of NBP: NBP was 2× serially diluted from an initial concentration of 480 μM to 8 concentrations: 480, 240, 120, 60, 30, 15, 7.5, and 3.75 μM, respectively.\n(§4) The action time of the drug was 72 h.\n(§5) 24 h after adherence, 100 μL of the culture solution containing different concentration gradients of ab-PTX was added to each well of the monotherapy group of ab-PTX; 100 μL of the culture solution containing different concentration gradients of ab-PTX and 30 μM NBP was added to each well of the combined therapy group of ab-PTX/NBP; 100 μL of the culture solution containing different concentration gradients of NBP was added to each well of the monotherapy group of NBP; 3 repeated wells were provided for each concentration of each drug, and the blank wells (only culture medium was present) and the normal wells (drug concentration was 0) were provided.\n(§6) The experiment was repeated three times, and the IC50 value was expressed as the mean±SD of the results of the 3 experiments."}, "HT29": {"tested_on": "HT29", "test": "In vitro tumor cell proliferation, MTT (Example 7)", "details": "Homo sapiens, HT-29, 72 h", "quoted_text": "(§7) This experiment includes a monotherapy group of Bortezomib, a combined therapy group (Bortezomib/NBP), and a monotherapy group of NBP. Different drug concentration gradients were set for each group.\n(§8) Monotherapy group of Bortezomib: (1) MM.1S, Jeko-1, and HT29 cells: Bortezomib was 1.5× serially diluted from an initial concentration of 20 nM to 8 concentrations: 20, 13.33, 8.89, 5.93, 3.95, 2.63, 1.76, and 1.17 nM, respectively; (2) A549 cells: Bortezomib was 2×serially diluted from an initial concentration of 200 nM to 8 concentrations: 200, 100, 50, 25, 12.5, 6.25, 3.13, and 1.56 nM, respectively; and (3) DU145 cells: Bortezomib was 2× serially diluted from an initial concentration of 100 nM to 8 concentrations: 100, 50, 25, 12.5, 6.25, 3.13, 1.56, and 0.78 nM, respectively.\n(§9) A certain number of conventionally cultured cells in logarithmic growth phase were inoculated in a 96-well plate with 100 μL per well. […] For adherent cells HT29, A549, and DU145, the above drugs were added 24 h after adherence. 3 replicate wells were set for each concentration of each drug, and blank wells (only culture medium was present, and no tumor cells were inoculated) and normal wells (a culture medium inoculated with tumor cells, drug concentration was 0) were set. The drugs functioned for 72 h, then MTT working solution (5 mg/mL) was added at 20 μL per well; after functioning at 37° C. for 4 h, the supernatant was removed, 150 μL of DMSO (analytically pure) was added; the mixture was fully mixed using a microplate oscillator, the plate was wiped clean, and the optical density (OD) at 550 nm was measured using a microplate reader.\n(§10) The cell growth inhibition rate was computed using the following equation:\n(§11) Inhibition rate (%)=(OD valuenormal well−OD valueadministration well)/(OD valuenormal well−OD valueblank well)×100%\n(§12) Based on the inhibition rate of each concentration, the median inhibitory concentration IC50 of the drug was computed using SPSS19.0."}, "[2]": {"test": "PK of total paclitaxel in plasma, B16/F10 tumor-bearing mice (Example 3)", "type": "in vivo, C57BL/6N mice", "details": "NBP 3, 10, 30 mg/kg bid i.p. with ab-PTX 25 mg/kg; Cmax, AUC0-t and other indexes", "protocol": "Administration volume: 10 mL/kg. […] The administration was performed for 15 consecutive days. The administration volume was 10 mL/kg. Before the administration of the last dose of ab-PTX (0 h), and 5 min, 0.5 […] after the administration, blood was sampled (as detailed in Table 5), anticoagulated with heparin, and centrifuged to separate plasma, which was stored at -80° C. for later use. The total amount of paclitaxel in the plasma was determined by protein precipitation-LC/MS/MS."}, "A549": {"tested_on": "A549", "test": "In vitro tumor cell proliferation, MTT (Example 7)", "details": "Homo sapiens, A549, 72 h", "quoted_text": "as §7, §8, §9, §10, §11, §12"}, "[3]": {"tested_on": "MM.1S, Jeko-1, HT29, A549, DU145", "test": "In vitro proliferation of 5 cell strains, summary statements (Example 7)", "type": "cell-based, Human", "details": "monotherapy of NBP; 5 cell strains", "protocol": "Different drug concentration gradients were set for each group.\nas §3, §4\n3 replicate wells were set for each concentration of each drug, and blank wells (only culture medium was present, and no tumor cells were inoculated) and normal wells (a culture medium inoculated with tumor cells, drug concentration was 0) were set."}, "MM.1S": {"tested_on": "MM.1S", "test": "In vitro tumor cell proliferation, MTT (Example 7)", "details": "Homo sapiens, MM1.S, 72 h", "quoted_text": "as §7, §8, §9, §10, §11, §12"}, "DU145": {"tested_on": "DU145", "test": "In vitro tumor cell proliferation, MTT (Example 7)", "details": "Homo sapiens, DU-145, 72 h", "quoted_text": "as §7, §8, §9, §10, §11, §12"}, "[4]": {"tested_on": "paclitaxel (albumin bound) chemotherapy-induced peripheral neuropathy", "test": "Paclitaxel (albumin bound) chemotherapy-induced peripheral neuropathy in rats, butylphthalide intraperitoneal injection (Example 1)", "type": "in vivo, SD (Sprague Dawley) rats", "details": "NBP 1.5, 5 and 15 mg/kg bid i.p., compared with the model group", "protocol": "The normal group was administered with 0.9% normal saline (0.9% INJ NS) at the same frequency. The animal grouping, the administration method, and the doses are detailed in Table 3. Based on the thermal pain threshold baselines and the body weights of the rats, the rats with the baseline values ranging from 3 to 6 s were selected, and were equally grouped in accordance with the above Table 3. […] (2) Thermal pain threshold: IITC Life Science Electronic Von Frey Anesthesio meter was used and the intensity of the light source was adjusted to obtain a baseline of thermal pain threshold of about 3-6 s. […] The rats were placed in a plastic compartment on a glass plate, to make the planta centers of the rats be exposed to the light source."}, "MDA-MB-231": {"tested_on": "MDA-MB-231", "test": "In vitro tumor cell proliferation, MTT (Example 5)", "type": "cell-based", "details": "Homo sapiens, 30 μM NBP alone, 72 h, read-out: Inhibition rate", "protocol": "as §1, §2, §3, §4, §5, §6"}, "A375": {"tested_on": "A375", "test": "In vitro tumor cell proliferation, MTT (Example 5)", "type": "cell-based", "details": "Homo sapiens, A-375, 30 μM NBP alone, 72 h, read-out: Inhibition rate", "protocol": "as §1, §2, §3, §4, §5, §6"}, "[5]": {"details": "read-out: Inhibition rate, First dose"}, "[6]": {"details": "read-out: Inhibition rate, Mean ± SD"}, "[7]": {"details": "read-out: Inhibition rate, Second dose"}, "[8]": {"details": "read-out: Inhibition rate, Third dose"}}, "note": "Like-named read-outs stand apart in the source and are kept apart here.", "data": [{"smiles": "CCCCC1OC(=O)c2ccccc21", "note": "(stereo not drawn) [NBP, 3-n-butylphthalide]", "values": [{"measurement": "Inhibition rate (tumor weight)", "setting": "JIMT-1 xenograft tumor; NBP 60 mg/kg bid gavage alone", "result": 4.0, "unit": "%"}, {"measurement": "Tumor weight", "setting": "JIMT-1 xenograft tumor; NBP 60 mg/kg bid gavage alone, mean ± SD, n=8", "result": "0.9570 ± 0.2529", "unit": "g"}, {"measurement": "tumor growth", "setting": "JIMT-1 xenograft tumor; ab-PTX 15 mg/kg qw i.v., NBP 60 mg/kg bid gavage, compared with the solvent group", "result": "not obviously affected"}, {"measurement": "body weights of the mice", "setting": "JIMT-1 xenograft tumor; ab-PTX 15 mg/kg qw i.v., NBP 6, 20, 60 mg/kg bid gavage, 28 days", "result": "no significant difference"}, {"measurement": "inhibitory effect on in vitro proliferation", "setting": "[1]", "result": "did not have obvious inhibitory effect"}, {"measurement": "inhibition at 30 µM", "setting": "HT29; [5]", "result": 9.98, "unit": "%"}, {"measurement": "inhibition at 30 µM", "setting": "HT29; [6]", "result": "10.7 ± 2.79", "unit": "%"}, {"measurement": "inhibition at 30 µM", "setting": "HT29; [7]", "result": 8.27, "unit": "%"}, {"measurement": "inhibition at 30 µM", "setting": "HT29; [8]", "result": 13.7, "unit": "%"}, {"measurement": "influence of NBP on the PK behavior of ab-PTX in mice", "setting": "[2]", "result": "did not affect"}, {"measurement": "inhibition at 30 µM", "setting": "A549; [5]", "result": -11.1, "unit": "%"}, {"measurement": "inhibition at 30 µM", "setting": "A549; [6]", "result": "1.11 ± 10.8", "unit": "%"}, {"measurement": "inhibition at 30 µM", "setting": "A549; [7]", "result": 9.68, "unit": "%"}, {"measurement": "inhibition at 30 µM", "setting": "A549; [8]", "result": 4.74, "unit": "%"}, {"measurement": "inhibitory effect on in vitro proliferation", "setting": "[3]", "result": "does not have obvious inhibitory effect"}, {"measurement": "inhibition at 30 µM", "setting": "MM.1S; [5]", "result": 0.16, "unit": "%"}, {"measurement": "inhibition at 30 µM", "setting": "MM.1S; [6]", "result": "12.1 ± 11.1", "unit": "%"}, {"measurement": "inhibition at 30 µM", "setting": "MM.1S; [7]", "result": 14.1, "unit": "%"}, {"measurement": "inhibition at 30 µM", "setting": "MM.1S; [8]", "result": 22.1, "unit": "%"}, {"measurement": "inhibition at 30 µM", "setting": "DU145; [5]", "result": -2.22, "unit": "%"}, {"measurement": "inhibition at 30 µM", "setting": "DU145; [6]", "result": "4.03 ± 5.88", "unit": "%"}, {"measurement": "inhibition at 30 µM", "setting": "DU145; [7]", "result": 9.44, "unit": "%"}, {"measurement": "inhibition at 30 µM", "setting": "DU145; [8]", "result": 4.87, "unit": "%"}, {"measurement": "body weights of the rats", "setting": "[4]; D4-16", "result": "not significantly changed"}, {"measurement": "thermal pain threshold (increase in model rats)", "setting": "[4]; D7-13, P<0.05 or P<0.01", "result": "significantly decreased"}, {"measurement": "inhibition at 30 µM", "setting": "MDA-MB-231", "result": "3.43 ± 3.95", "unit": "%"}, {"measurement": "inhibition at 30 µM", "setting": "A375", "result": "10.9 ± 0.57", "unit": "%"}]}]}
